Test results: patent publication US4613588A, “Benzaldehyde and 4,6-O-benzylidene-D-glucose for alleviating pain” (Kaken Pharmaceutical Co. Ltd., priority 1984, dated 1986)
Where two headings read alike, the source gives them in different places.

Legend:
[1] = biological target: T1, dipeptidylaminopeptidase (enkephalinase B) (Macaca fascicularis, UniProt A0A7N9C8Y6); assay: Enkephalinase B inhibiting effect; format: biochemical
T1 construct: releases Tyr-Gly from enkephalin
T1 sequence (A0A7N9C8Y6 1-737): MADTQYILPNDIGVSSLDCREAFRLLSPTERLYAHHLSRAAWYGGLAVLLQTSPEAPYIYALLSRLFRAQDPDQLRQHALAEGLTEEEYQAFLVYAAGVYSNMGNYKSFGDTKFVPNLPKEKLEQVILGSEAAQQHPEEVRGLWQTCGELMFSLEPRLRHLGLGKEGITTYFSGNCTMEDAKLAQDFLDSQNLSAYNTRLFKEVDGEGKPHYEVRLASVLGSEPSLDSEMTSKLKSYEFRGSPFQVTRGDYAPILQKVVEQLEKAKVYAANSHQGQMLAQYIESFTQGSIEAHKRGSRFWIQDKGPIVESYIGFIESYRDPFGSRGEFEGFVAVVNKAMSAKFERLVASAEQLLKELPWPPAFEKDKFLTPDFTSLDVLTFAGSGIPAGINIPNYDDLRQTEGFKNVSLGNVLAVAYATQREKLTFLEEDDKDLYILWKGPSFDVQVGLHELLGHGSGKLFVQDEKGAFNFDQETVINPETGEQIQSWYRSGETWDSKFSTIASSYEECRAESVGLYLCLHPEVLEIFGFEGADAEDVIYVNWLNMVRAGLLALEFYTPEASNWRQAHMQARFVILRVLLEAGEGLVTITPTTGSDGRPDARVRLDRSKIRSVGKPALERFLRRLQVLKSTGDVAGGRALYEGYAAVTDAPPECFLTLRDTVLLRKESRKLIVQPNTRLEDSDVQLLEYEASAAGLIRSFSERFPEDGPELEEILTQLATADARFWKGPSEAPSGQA
Description: (§1) The cerebrum of Macaca Fascicularis was chopped using anatomical scissors, 3 volumes that of 25 mM tris-hydrochloric acid buffer (pH 7.7) was added thereto and the mixture homogenized. It was then ultracentrifuged (50,000×g), the supernatant was removed, and the obtained precipitants were treated and washed twice using the same buffer (these precipitates contained enkephalin decomposing enzymes in a form combined to the cell membrane).
(§2) Thereafter, 25 mM tris-hydrochloric acid buffer (pH 7.7) containing 1% of Triton X-100 was added to the precipitates to extract enkephalinase. […]
(§3) The obtained enkephalin decomposing enzymes were analyzed by acrylamide electrophoresis to find that they were single proteins respectively.
(§4) The enzymatic activity of the respective decomposing enzymes obtained above was measured by the qualitative and quantitative analyses of the decomposition products using [^3 H]-enkephalin or enkephalin as a substrate and employing Porapak Q (produced by Water Associates) column method, high-performance liquid chromatography (HPLC), silica gel thin layer autography, etc. […]

[2] = biological target: T2, angiotensin converting enzyme (Macaca fascicularis, UniProt A0A2K5VWQ5); assay: Angiotensin converting enzyme inhibiting effect; format: biochemical
T2 sequence (A0A2K5VWQ5 31-1307): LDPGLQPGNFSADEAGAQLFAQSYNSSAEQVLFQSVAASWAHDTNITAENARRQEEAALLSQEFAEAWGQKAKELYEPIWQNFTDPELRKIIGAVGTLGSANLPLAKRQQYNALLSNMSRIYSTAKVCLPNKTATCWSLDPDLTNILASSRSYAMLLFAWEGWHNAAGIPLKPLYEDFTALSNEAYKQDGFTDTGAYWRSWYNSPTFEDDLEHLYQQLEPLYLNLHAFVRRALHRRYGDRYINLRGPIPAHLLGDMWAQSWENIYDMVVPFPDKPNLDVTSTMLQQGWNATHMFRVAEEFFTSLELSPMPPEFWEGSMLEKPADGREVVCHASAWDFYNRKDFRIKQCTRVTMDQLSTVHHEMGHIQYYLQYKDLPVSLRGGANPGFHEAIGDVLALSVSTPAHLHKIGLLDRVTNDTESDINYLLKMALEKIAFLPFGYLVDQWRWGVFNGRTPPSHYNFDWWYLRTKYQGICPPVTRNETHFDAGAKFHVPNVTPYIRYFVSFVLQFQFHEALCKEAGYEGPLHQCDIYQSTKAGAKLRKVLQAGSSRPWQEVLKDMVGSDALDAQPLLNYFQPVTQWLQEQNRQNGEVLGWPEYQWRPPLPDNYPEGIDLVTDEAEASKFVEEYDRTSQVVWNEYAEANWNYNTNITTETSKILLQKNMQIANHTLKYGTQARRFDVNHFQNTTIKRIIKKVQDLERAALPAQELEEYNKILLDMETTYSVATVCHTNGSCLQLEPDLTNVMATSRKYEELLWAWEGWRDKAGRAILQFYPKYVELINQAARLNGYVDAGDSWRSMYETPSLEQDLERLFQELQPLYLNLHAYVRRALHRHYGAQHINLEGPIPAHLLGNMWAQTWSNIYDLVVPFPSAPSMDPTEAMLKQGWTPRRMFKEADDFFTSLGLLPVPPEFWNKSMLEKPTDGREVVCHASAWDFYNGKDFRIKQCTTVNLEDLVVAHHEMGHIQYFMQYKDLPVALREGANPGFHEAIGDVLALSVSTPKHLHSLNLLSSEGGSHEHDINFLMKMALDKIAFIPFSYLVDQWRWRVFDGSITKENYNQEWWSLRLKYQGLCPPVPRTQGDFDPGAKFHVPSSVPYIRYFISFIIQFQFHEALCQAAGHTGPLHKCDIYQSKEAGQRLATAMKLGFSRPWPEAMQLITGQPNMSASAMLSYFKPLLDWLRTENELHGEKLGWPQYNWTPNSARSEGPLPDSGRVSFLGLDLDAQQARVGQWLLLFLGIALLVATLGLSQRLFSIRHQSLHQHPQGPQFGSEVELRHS
Description: as §1, §2, §3, §4

[3] = system: carcinomatous pain; assay: Carcinomatous pain treating tests (clinical examples); format: in vivo, human; settings: one patient
Description: Further, using benzaldehyde and 4,6-O-benzylidene-D-glucose the following carcinomatous pain treating tests were conducted.
After hospitalization, 25 mg benzaldehyde tablets (enteric tablets containing benzaldehyde prepared in the above-described Formulation Example 5) were administered at a dosage of 5 tablets, 4 times a day.
Since variety of chemotherapeutics were not administered because there was a threat of strong side effects, the sole administration of 4,6-O-benzylidene-D-glucose was started in such a way that 1,200 mg of a freeze dried preparation thereof was dissolved in 100 ml of physiological saline and administered i.v. at a rate of once a day (time required being ca. 10 minutes).

[4] = system: aminopeptidase; assay: Aminopeptidase (enkephalin decomposing enzyme) inhibiting effect; format: biochemical, Macaca Fascicularis
Description: as §1, §2, §3, §4

[5] = Acute toxicity by subcutaneous injection in rats; settings: rat, in vivo, sc
Excerpt: Since both benzaldehyde and 4,6-O-benzylidene-D-glucose are substantially non-toxic a wide dosage range may be administered depending on the severity of the pain experienced. The acute toxicity of benzaldehyde and 4,6-O-benzylidene-D-glucose are 5 g/kg or higher and 4 g/kg or higher, respectively, when measured by subcutaneous injection in rats according to conventional toxicity procedures.

[6] = Japanese Patent Application Laid-Open No. 108027/1977 and No. 70428/1979; cited from earlier work
[7] = biological target: T3, dipeptidylcarboxypeptidase (enkephalinase A) (Macaca fascicularis, UniProt G7NZK8); assay: Enkephalinase A inhibiting effect; format: biochemical; settings: read-out: enzyme inhibiting effect on enkephalinase A
T3 construct: releases Tyr-Gly-Gly from [3H]Leu-enkephalin
T3 sequence (G7NZK8 2-750): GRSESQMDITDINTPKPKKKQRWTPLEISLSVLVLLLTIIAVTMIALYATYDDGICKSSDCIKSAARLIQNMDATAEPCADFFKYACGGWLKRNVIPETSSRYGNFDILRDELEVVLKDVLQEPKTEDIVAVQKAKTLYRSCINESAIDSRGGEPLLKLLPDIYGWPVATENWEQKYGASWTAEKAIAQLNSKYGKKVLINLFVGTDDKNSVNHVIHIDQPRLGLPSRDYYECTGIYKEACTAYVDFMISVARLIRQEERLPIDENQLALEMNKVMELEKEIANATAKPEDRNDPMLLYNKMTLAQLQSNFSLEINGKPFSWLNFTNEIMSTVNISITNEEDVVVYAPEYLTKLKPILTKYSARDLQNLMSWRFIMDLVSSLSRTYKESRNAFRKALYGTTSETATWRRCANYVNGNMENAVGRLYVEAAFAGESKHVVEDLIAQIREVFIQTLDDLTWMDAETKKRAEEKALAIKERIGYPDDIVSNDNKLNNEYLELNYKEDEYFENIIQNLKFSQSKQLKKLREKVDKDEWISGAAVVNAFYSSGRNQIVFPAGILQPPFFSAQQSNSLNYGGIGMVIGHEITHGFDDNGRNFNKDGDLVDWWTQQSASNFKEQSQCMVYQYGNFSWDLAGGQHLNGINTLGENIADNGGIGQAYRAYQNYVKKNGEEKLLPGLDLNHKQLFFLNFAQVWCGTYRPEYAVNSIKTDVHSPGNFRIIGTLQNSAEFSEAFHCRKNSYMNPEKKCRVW
Description: as §1, §2, §3
The enzymatic activity of the respective decomposing enzymes obtained above was measured by the qualitative and quantitative analyses of the decomposition products using [^3 H]-enkephalin or enkephalin as a substrate and employing Porapak Q (produced by Water Associates) column method, high-performance liquid chromatography (HPLC), silica gel thin layer autography, etc.
10 μl of 10 μCi [^3 H] […] Tyr-Gly-Gly was determined using a liquid scintillation counter. […]

| SMILES | enzyme inhibiting effect on enkephalinase B ([1]; 1.2 mg/ml) | enzyme inhibiting effect on angiotensin converting enzyme ([2]; 1.2 mg/ml) | pain ([3]; gastric cancer metastasis to bone, 1,200 mg i.v. once a day, 17th to 18th day) | tumor condition by bone scintillation ([3]; gastric cancer metastasis to bone, 1,200 mg i.v. once a day, 26th day, versus before administration) | mobility ([3]; gastric cancer metastasis to bone, 1,200 mg i.v. once a day, from 10th day) | enzyme inhibiting effect on aminopeptidase ([4]; 1.2 mg/ml) | LD50 [5] [mg/kg] | carcinostatic effect [6] | inhibition at 1200 µg/mL ([7]; 1.2 mg/ml) [%] | enzyme inhibiting effect on enkephalinase B ([1]; 1 mg/ml) | enzyme inhibiting effect on angiotensin converting enzyme ([2]; 1 mg/ml) | pain (subjective symptom) ([3]; mandible cancer relapse, 25 mg enteric tablets (Formulation Example 5), 5 tablets 4 times a day, oral, from 5th day) | carcinoma size by X-ray examination ([3]; mandible cancer relapse, 25 mg enteric tablets, 5 tablets 4 times a day, oral) | pain (subjective symptom) ([3]; mandible cancer relapse, 25 mg enteric tablets, 5 tablets 4 times a day, oral, 7th day) | enzyme inhibiting effect on aminopeptidase ([4]; 1 mg/ml) | LD50 ([5]; subcutaneous injection, rats, read-out: acute toxicity) [mg/kg] | inhibition at 1000 µg/mL [7] [%] |
| --- | --- | --- | --- | --- | --- | --- | --- | --- | --- | --- | --- | --- | --- | --- | --- | --- | --- |
| OC1O[C@@H]2COC(c3ccccc3)O[C@H]2[C@H](O)[C@H]1O (stereo partly drawn) [4,6-O-benzylidene-D-glucose] | did not exhibit an enzyme inhibiting effect | did not exhibit an enzyme inhibiting effect | the pain almost disappeared | the tumor condition was the same | became able to sit on bed | did not exhibit an enzyme inhibiting effect | ≥ 4000 | known to have carcinostatic effect | 81 |  |  |  |  |  |  |  |  |
| O=Cc1ccccc1 [benzaldehyde] |  |  |  |  |  |  |  | known to have carcinostatic effect |  | did not exhibit an enzyme inhibiting effect | did not exhibit an enzyme inhibiting effect | the pain was eased | did not reduce in size | almost no pain | did not exhibit an enzyme inhibiting effect | ≥ 5000 | 99 |
